The test system of data set [1] is Acanthamoeba castellanii Neff trophozoites. Also noted: method as in PMID 30423882. Conditions: previous work; read-out: IC50 against Acanthamoeba castellanii Neff; cited from earlier work.
Data set [2] shares this test system. In words: In vitro activity against Acanthamoeba trophozoites (alamarBlue colorimetric assay). Format: cell-based, Acanthamoeba castellanii Neff (ATCC 30010). Conditions: 96 h, read-out: IC50 against Acanthamoeba castellanii Neff. The protocol:
(§1) The antiamoeboid activity of the compounds was evaluated against Acanthamoeba castellanii Neff (ATCC 30010) type strain from the American Type Culture Collection. This strain was axenically incubated in PYG medium (0.75% (w/v) proteose Peptone, 0.75% (w/v) Yeast extract, and 1.5% (w/v) Glucose) supplemented with 10 µg/mL gentamicin (Sigma-Aldrich, Madrid, Spain). As for the cytotoxicity assays, murine macrophages J774A.1 (ATCC TIB-67) were used, cultivated in DMEM medium (Dulbecco’s modified eagle medium, Gibco Life Technologies, California, USA) with 10% supplement of fetal bovine serum (FBS) and 10 µg/mL gentamicin at 37 °C in a 5% CO2 incubator.
The in vitro activities of the different compounds of Laurencia were evaluated using a previously developed colorimetric assay based on the alamarBlue™ Cell Viability Reagent assay (Life Technologies, Barcelona, Spain). Briefly, 50 µL of 5 × 10⁴ trophozoites/mL were seeded onto a 96-well microtiter plate. After 15 min, the adherence of the cells to the plate bottom was confirmed by the use of the inverted microscope Leica DMIL (Leica, Wetzlar, Germany). Furthermore, 50 µL of serial dilutions of each compound was added to the 96-well microtiter plate. Finally, alamarBlue™ was placed into each well at 10% of the final volume and incubated at 26 °C with slight agitation. After 96 h, the fluorescence was measured with EnSpire Multimode Plate Reader (Perkin Elmer, Madrid, Spain) at a wavelength of 570/585 nm. The inhibitory concentration to inhibit the growth of 50% of the parasites (IC50) was calculated through nonlinear regression analysis with 95% confidence limits using the software Sigma Plot 12.0 (Systat Software Inc., London, UK). The experiments were performed three times each, allowing for standard deviation.
For orientation: The colour change of resazurin is a common sign of viable cells or microbes.

Data set [3] can be described thus: Cytotoxicity assay (alamarBlue). The data set is classed as cell-based, murine. Also noted: CC50, toxicity against murine macrophage J774A.1 (unit not given): unit not given beside the values. The settings on record: mouse, 24 h, 37 °C, read-out: CC50, toxicity against murine macrophage J774.A1. The protocol: as §1
(§2) The cytotoxicity of the tested compounds was determined in vitro with murine macrophages (J774A.1). For this assay, the DMEM culture medium was changed from RPMI without phenol red (Roswell Park Memorial Institute, Thermo Fisher Scientific Inc., Waltham, MA, USA) to L-Glutamine supplemented with 10% (v/v) inactivated FBS and with 10 µg/mL gentamicin. In this assay, the macrophages were counted and seeded into a 96-well microtiter plate, adding 50 µL to each well from a stock solution of 2 × 10^5 cells/mL. Cells were then left to adhere for 15 min to the plate bottom and were checked with the inverted microscope Leica DMIL. After that, 50 µL of a serial dilution of the compounds was added to the 96-well microtiter plate. Finally, alamarBlue™ was added into each well at an amount equal to 10% of the final volume and incubated at 37 °C in the presence of CO2 at 5% for 24 h. After this period of time, as in the in vitro anti-Acanthamoeba assay, the fluorescence was determined with an EnSpire Multimode Plate Reader (PerkinElmer, Inc, Waltham, MA, USA) at a wavelength of 570/585 nm. The cytotoxicity concentration to inhibit the growth of 50% of murine macrophages (CC50) was calculated through nonlinear regression analysis with 95% confidence limits using the software Sigma Plot 12.0 (Systat Software, Inc, San Jose, CA 95110 USA). Experiments were performed three times each, allowing for standard deviation.

Data set [4] has as its system murine macrophages J774A.1. Put plainly: Cytotoxicity assay (alamarBlue). The data set is classed as cell-based. Also on record: CC50, toxicity against murine macrophage J774A.1 (unit not given): unit not given beside the values. The settings on record: for CC50, toxicity against murine macrophage J774A.1 (unit not given): mouse. The protocol: as §1, §2
The test system of data set [5] is Acanthamoeba castellanii Neff trophozoites. In words: In vitro activity against Acanthamoeba trophozoites (alamarBlue colorimetric assay). Format: cell-based, Acanthamoeba castellanii Neff (ATCC 30010). The settings on record: 42.5 µM (25 µg/mL).

Where two headings read alike, the source gives them in different places.

3α-bromojohnstane: the IC50 in data set [1] is 41.5 µM.

`C[C@@H]1[C@H](O)[C@@H](C)/C=C/C=C/C=C/C=C/C=C/C=C/C=C/[C@H](O[C@@H]2O[C@H](C)[C@@H](O)[C@H](N)[C@@H]2O)C[C@@H]2O[C@](O)(C[C@@H](O)C[C@@H](O)[C@H](O)CC[C@@H](O)C[C@@H](O)CC(=O)O[C@H]1C)C[C@H](O)[C@H]2C(=O)O` [Amphotericin B, amphotericin B, reference compound]: the 50% inhibitory concentration (IC50) in data set [2] (trophozoites, 26 °C) turned out to be 39.6 ± 0.56 µM. Further, the cytotoxic concentration (CC50) at 24 h in data set [3] (J774A.1 murine macrophages) is > 100 µM.

For `[H]/N=C(\N/C(=N/[H])NCCCCCCNC(=N)NC(=N)Nc1ccc(Cl)cc1)Nc1ccc(Cl)cc1` [Chlorhexidine, chlorhexidine, reference compound], the 50% cytotoxic concentration (CC50) at 24 h in data set [3] (J774A.1 murine macrophages) is 6.64 ± 0.35 µM.

Take `CC(C)(O)[C@H]1CC[C@](C)([C@@H](O)CC[C@](C)(O)[C@H]2CC[C@H]3O[C@@H]([C@]4(C)CC[C@@H](Br)C(C)(C)O4)CC[C@]3(C)O2)O1` [Compound 2, thyrsiferol]: the IC50 in data set [2] was found to be 14 ± 1.57 µM. Also, the CC50 at 24 h in data set [3] was > 100 µM. The “toxicity against murine macrophages (in words)” value in data set [4] is on record as “not toxic against murine macrophages”. Also, the “CC50, toxicity against murine macrophage J774A.1 (unit not given)” value in data set [4] (24 h) is < 50.

`C=C(CC[C@H](O)[C@@]1(C)CC[C@@H](O)C(C)(C)O1)[C@H]1CC[C@H]2O[C@@H]([C@]3(C)CC[C@@H](Br)C(C)(C)O3)CC[C@]2(C)O1` [Compound 3, iubol]: the half-inhibitory concentration (IC50) in data set [2] (trophozoites, 26 °C) is 5.3 ± 0.87 µM. For the same molecule, the CC50 in data set [3] came to 7.72 ± 0.22 µM. For the same molecule, the “inhibitory effect on the growth of A. castellanii trophozoites (microscopy)” value in data set [5] is “many of the treated cells were dead”.

In the case of `C=C(CC[C@H](O)[C@@]1(C)CC[C@](O)(C(C)(C)O)O1)[C@H]1CC[C@H]2O[C@@H]([C@]3(C)CC[C@@H](Br)C(C)(C)O3)CC[C@]2(C)O1` [Compound 4, 22-hydroxydehydrothyrsiferol], the IC50 in data set [2] (trophozoites, 26 °C) was determined as 17 ± 4.57 µM. In data set [3], the CC50 was > 100 µM. In data set [4], the “toxicity against murine macrophages (in words)” value is recorded as “not toxic against murine macrophages” and the “CC50, toxicity against murine macrophage J774A.1 (unit not given)” value was < 50.

As to `C=C(C)[C@@H]1CC[C@@](C)([C@H]2CC[C@]3(C)O[C@@H](C(=C)CC[C@H](O)[C@@]4(C)CC[C@H](C(C)(C)O)O4)CC[C@H]3O2)O1` [Compound 5, 1,2-dehydropseudodehydrothyrsiferol], the half-maximal inhibitory concentration (IC50) in data set [2] (trophozoites, 26 °C) was determined as 105 ± 1.72 µM. In data set [3] (J774A.1 murine macrophages), the 50% cytotoxic concentration (CC50) at 24 h was > 100 µM.

With `CC(C)(O)[C@H]1CC[C@](C)([C@@H]2CC[C@@](C)([C@H]3CC[C@H]4O[C@@H]([C@]5(C)CC[C@@H](Br)C(C)(C)O5)CC[C@]4(C)O3)O2)O1` [Compound 6, saiyacenol A], the IC50 in data set [2] (trophozoites, 26 °C) was determined as 55.4 ± 6.56 µM. In addition, the CC50 in data set [3] amounted to 59.9 ± 8.5 µM.

As for `CC(C)(O)[C@H]1CC[C@](C)([C@@H]2CC[C@](C)([C@H]3CC[C@H]4O[C@@H]([C@]5(C)CC[C@@H](Br)C(C)(C)O5)CC[C@]4(C)O3)O2)O1` [Compound 7, saiyacenol B], in data set [2] (trophozoites, 26 °C), the half-maximal inhibitory concentration (IC50) worked out at 77.9 ± 3.3 µM. In addition, the 50% cytotoxic concentration (CC50) in data set [3] is > 100 µM.

As for `CC(C)(O)[C@H]1CC[C@](C)([C@@H]2CC[C@@](CO)([C@H]3CC[C@H]4O[C@@H]([C@]5(C)CC[C@@H](Br)C(C)(C)O5)CC[C@]4(C)O3)O2)O1` [Compound 8, 28-hydroxysaiyacenol A], the half-maximal inhibitory concentration (IC50) in data set [2] (trophozoites, 26 °C) turned out to be 66.2 ± 3.81 µM. Moreover, the cytotoxic concentration (CC50) in data set [3] is > 100 µM.

`CC(C)(O)[C@H]1CC[C@](C)([C@@H]2CC[C@](CO)([C@H]3CC[C@H]4O[C@@H]([C@]5(C)CC[C@@H](Br)C(C)(C)O5)CC[C@]4(C)O3)O2)O1` [Compound 9, 28-hydroxysaiyacenol B]: the half-inhibitory concentration (IC50) in data set [2] (trophozoites, 26 °C) was found to be 59.9 ± 10.1 µM. Further, the CC50 in data set [3] was > 100 µM.

For `CC(C)(O)C1CCC(C)(C2CCC(C)(C3CCC(C(C)(O)CCC4OC(C)(C)C5CCC4(C)O5)O3)O2)O1` (centres unmarked) [Compound 10, nivariol A], the IC50 in data set [2] (trophozoites, 26 °C) was 102 ± 9.57 µM. Besides, the CC50 at 24 h in data set [3] (J774A.1 murine macrophages) is > 100 µM.

As for `CC1(C)O[C@](C)([C@H]2CC[C@]3(C)OC(=O)CC[C@H]3O2)CC[C@H]1Br` [Compound 11, adejene B], the 50% inhibitory concentration (IC50) in data set [2] (trophozoites, 26 °C) turned out to be 48.3 ± 0.55 µM. For the same molecule, the CC50 at 24 h in data set [3] (J774A.1 murine macrophages) is > 100 µM.

Turning to `C=C(CC[C@H](OS(=O)(=O)O)[C@@]1(C)CC[C@H](C(C)(C)O)O1)[C@H]1CC[C@H]2O[C@@H]([C@]3(C)CC[C@@H](Br)C(C)(C)O3)CC[C@]2(C)O1` [Compound 12, 18-sulphatedehydrothyrsiferol], the IC50 in data set [2] (trophozoites, 26 °C) is 43.18 ± 0.14 µM. For the same molecule, the CC50 in data set [3] was > 100 µM.

`C=C(CCC(=O)[C@@]1(C)CC[C@H](C(C)(C)O)O1)[C@H]1CC[C@H]2O[C@@H]([C@]3(C)CC[C@@H](Br)C(C)(C)O3)CC[C@]2(C)O1` [Compound 13, 18-ketodehydrothyrsiferol]: in data set [2] (trophozoites, 26 °C), the 50% inhibitory concentration (IC50) is 29.1 ± 2.84 µM. For the same molecule, the CC50 in data set [3] amounted to 23.4 ± 1.76 µM.

For the molecule `CC(C)(O)[C@H]1CC[C@](C)([C@@H]2CC[C@@](CI)([C@H]3CC[C@H]4O[C@@H]([C@]5(C)CC[C@@H](Br)C(C)(C)O5)CC[C@]4(C)O3)O2)O1` [Compound 14, 28-iodosaiyacenol A], the 50% inhibitory concentration (IC50) in data set [2] (trophozoites, 26 °C) turned out to be 50.5 ± 3.05 µM. Also, the 50% cytotoxic concentration (CC50) in data set [3] is 29.45 ± 0.2 µM.

`CC(C)(O)[C@H]1CC[C@](C)([C@@H]2CC[C@](CI)([C@H]3CC[C@H]4O[C@@H]([C@]5(C)CC[C@@H](Br)C(C)(C)O5)CC[C@]4(C)O3)O2)O1` [Compound 15, 28-iodosaiyacenol B]: in data set [2] (trophozoites, 26 °C), the IC50 was found to be 54.3 ± 6.56 µM. Moreover, the CC50 in data set [3] was > 100 µM.

For the molecule `CC(C)(O)[C@H]1CC[C@](C)([C@@H](O)CCC(O)(CO)[C@H]2CC[C@H]3O[C@@H]([C@]4(C)CC[C@@H](Br)C(C)(C)O4)CC[C@]3(C)O2)O1` (some centres unmarked) [Compound 16, 28-hydroxythyrsiferol], in data set [2] (trophozoites, 26 °C), the half-maximal inhibitory concentration (IC50) amounted to 104 ± 8.42 µM. Moreover, the CC50 in data set [3] was > 100 µM.

Take `C[C@@H](c1ncncc1F)[C@](O)(Cn1cncn1)c1ccc(F)cc1F` [Voriconazole, voriconazole, reference compound]: the IC50 in data set [2] (trophozoites, 26 °C) was found to be 0.94 ± 0.29 µM. Also, in data set [3] (J774A.1 murine macrophages), the CC50 at 24 h worked out at 2.64 ± 0.27 µM.

In general, IC50 refers to the point on the concentration scale where inhibition reaches its midpoint. What is called CC50 is the concentration that lowers cell viability or growth by half.

(Values after publication PMC6669608, “Evaluation of Oxasqualenoids from the Red Alga Laurencia viridis against Acanthamoeba” (Marine Drugs, 2019).)
